Data from patent publication US11160782B2, “Method for producing nobiletin-containing solid dispersion” (KAO CORPORATION, priority 2016, dated 2021).

Columns and labels:
[1] = Solubility in water at 25° C. of the poorly water-soluble raw material; settings: raw material (poorly water-soluble substance) of the composition
[2] = Transferability of nobiletin into blood circulation during oral administration to mice; type: in vivo; settings: male, C57BL/6J, mouse, 200 mg/kg, plasma
Text: [Evaluation of Transferability of Nobiletin into Blood Circulation During Oral Administration to Mice]
C57BL/6J mice (male, 6 week-old) were purchased from CLEA Japan, Inc. The mice were habituated to the environment for one week or more, and were fed to a test. Each of the test groups consisted of 8 mice, which was believed to be the minimum number required to ensure the statistical significance of the test system.
Mice were bred in the facility for one week under ad libitum feeding of solid food (CE-s), and the test was performed using the mice. The mice were fasted for 16 hours, and blood was initially collected from the orbital sinus of each mouse under isoflurane anesthesia (heparin-treated micro hematocrit blood collection tube, manufactured by VITREX Medical A/S). Each sample solution was then administrated into the stomach of the mice at a dose of 200 mg/kg weight per mouse using a probe. […]
The collected blood samples were centrifuged at 12,000 rpm for 10 minutes, and 30 μL of plasma in each sample was recovered into an Eppendorf tube. […] The nobiletin concentration in the plasma was measured by LC-MS/MS.
30 μL of acetonitrile was added to 30 μL of the recovered plasma, was stirred with a vortex mixer for 5 seconds, and was centrifuged at 12,000 rpm for 15 minutes at room temperature. […] The nobiletin concentration was then measured by LC-MS/MS.

Solubility in water at 25° C. [1] | AUC ([2]; read-out: AUC (area under the blood concentration transition curve) (converted)) | Cmax ([2]; read-out: Cmax (maximum blood concentration of nobiletin)) | SMILES
4 ppm |  |  | O=c1oc2c(O)c(O)cc3c(=O)oc4c(O)c(O)cc1c4c23 [Ellagic acid, Ellagic acid dihydrate]
1 ppm | 5380 ng·h/mL | 3700 ng/mL | COc1ccc(-c2cc(=O)c3c(OC)c(OC)c(OC)c(OC)c3o2)cc1OC [Nobiletin, 3′,4′,5,6,7,8-hexamethoxyflavone]

SMILES | Solubility in water at 25° C. [1] | AUC ([2]; read-out: AUC (area under the blood concentration transition curve) (converted)) | Cmax ([2]; read-out: Cmax (maximum blood concentration of nobiletin))
COc1ccc([C@@H]2CC(=O)c3c(O)cc(O[C@@H]4O[C@H](CO[C@@H]5O[C@@H](C)[C@H](O)[C@@H](O)[C@H]5O)[C@@H](O)[C@H](O)[C@H]4O)cc3O2)cc1O [Hesperidin] | 0.5 ppm |  | 
